In publication PMC6429214, “Design, Synthesis and Biological Evaluation of Isoxazole-Based CK1 Inhibitors Modified with Chiral Pyrrolidine Scaffolds” (Molecules, 2019):

Tests used:
Experiment in all cases: 33PanQinase panel
Type in all cases: biochemical
CAMK2A = target: T1, CAMK2A (Homo sapiens, UniProt Q9UQM7); details: read-out: Residual Activity (%)
T1 construct: purchased ProQinase
Protocol: (§1) Figure 5 Dendrogram representation of the selectivity profile of 29d at a concentration of 1 μM in a panel of 320 wild-type kinases (ProQinase, Freiburg, Germany). The residual kinase activity was determined compared to DMSO control. Images were generated using TREEspot Software Tool, DISCOVERX CORPORATION 2010.
(§2) Figure S1. X-ray crystal structure of intermediate compound 25d (ORTEP drawing with ellipsoids at 30% probability). CCDC 1589043 contains the supplementary crystallographic data for this paper. The data can be obtained free of charge from The Cambridge Crystallographic Data Centre via www.ccdc.cam.ac.uk/structures.
(§3) Table S1 Data collection, structure refinement and Ramachrandran plot results of protein crystallization of CK1δ in complex with compound 30a and 30b, respectively.
(§4) Root-mean-square deviations
(§5) Additionally allowed 2.6 2.2
(§6) Table S2. Selectivity profile of compound 29d. The inhibitor has been screened at a concentration of 1 µM over a panel of 320 wild-type protein kinases by ProQinase GmbH (Freiburg, Germany) using an activity-based radiometric 33PanQinase® assay. Results are presented as percentage of residual kinase activity relative to […]
(§7) control. The final DMSO concentration was 1 % in each reaction-mix. Classification of protein kinase families refers to Manning et al. (Manning, G.; Whyte, D. B.; Martinez, R.; Hunter, T.; Sudarsanam, S. The Protein Kinase Complement of the Human Genome. Science 2002, 298, 1912–1934): AGC = containing PKA, PKG, PKC families; […] = containing Cdk, MAPK, GSK3, CLK families; STE = homologs of yeast sterile 7, sterile 11, sterile 20 kinases; TK = tyrosine kinase; TKL = tyrosine kinase-like.
(§8) Kinase name Kinase family Residual Activity (%)

TAOK2 = target: T2, TAOK2 (Homo sapiens, UniProt Q9UL54); details: TAOK2, 1 µM; read-out: Residual Activity (%)
T2 construct: purchased ProQinase
Protocol: as §1, §2, §3, §4, §5, §6, §7, §8

MEKK3 = target: T3, MEKK3 (Homo sapiens, UniProt Q99759); details: MEKK3, 1 µM; read-out: Residual Activity (%)
T3 construct: purchased ProQinase
Protocol: as §1, §2, §3, §4, §5, §6, §7, §8

DNA-PK = target: T4, DNA-PK (Homo sapiens, UniProt P78527); details: read-out: Residual Activity (%)
T4 construct: purchased ProQinase
Protocol: as §1, §2, §3, §4, §5, §6, §7, §8

PRKG1 = target: T5, PRKG1 (Homo sapiens, UniProt Q13976); details: PRKG1, 1 µM; read-out: Residual Activity (%)
T5 construct: purchased ProQinase
Protocol: as §1, §2, §3, §4, §5, §6, §7, §8

STK23 = target: T6, STK23 (Homo sapiens, UniProt Q9UPE1); details: STK23, 1 µM; read-out: Residual Activity (%)
T6 construct: purchased ProQinase
Protocol: as §1, §2, §3, §4, §5, §6, §7, §8

CK2-alpha2 = target: T7, CK2-alpha2 (Homo sapiens, UniProt P19784); details: CK2-alpha2, 1 µM; read-out: Residual Activity (%)
T7 construct: purchased ProQinase
Protocol: as §1, §2, §3, §4, §5, §6, §7, §8

BLK = target: T8, BLK (Homo sapiens, UniProt P51451); details: read-out: Residual Activity (%)
T8 construct: purchased ProQinase
Protocol: as §1, §2, §3, §4, §5, §6, §7, §8

MYLK = target: T9, MYLK (Homo sapiens, UniProt Q15746); details: read-out: Residual Activity (%)
T9 construct: purchased ProQinase
Protocol: as §1, §2, §3, §4, §5, §6, §7, §8

PKC-nu = target: T10, PKC-nu (Homo sapiens, UniProt O94806); details: read-out: Residual Activity (%)
T10 construct: purchased ProQinase
Protocol: as §1, §2, §3, §4, §5, §6, §7, §8

CLK4 = target: T11, CLK4 (Homo sapiens, UniProt Q9HAZ1); details: CLK4, 1 µM; read-out: Residual Activity (%)
T11 construct: purchased ProQinase
Protocol: as §1, §2, §3, §4, §5, §6, §7, §8

PRK1 = target: T12, PRK1 (Homo sapiens, UniProt Q16512); details: PRK1, 1 µM; read-out: Residual Activity (%)
T12 construct: purchased ProQinase
Protocol: as §1, §2, §3, §4, §5, §6, §7, §8

ACV-R1 = target: T13, ACV-R1 (Homo sapiens, UniProt Q04771); details: ACV-R1, 1 µM; read-out: Residual Activity (%)
T13 construct: purchased ProQinase
Protocol: as §1, §2, §3, §4, §5, §6, §7, §8

PKC-beta1 = target: T14, PKC-beta1 (Homo sapiens, UniProt P05771); details: PKC-beta1, 1 µM; read-out: Residual Activity (%)
T14 construct: purchased ProQinase
Protocol: as §1, §2, §3, §4, §5, §6, §7, §8

CDK9/CycK = target: T15, CDK9/CycK (Homo sapiens, UniProt P50750); details: read-out: Residual Activity (%)
T15 construct: purchased ProQinase
Protocol: as §1, §2, §3, §4, §5, §6, §7, §8

CDK2/CycA2 = target: T16, CDK2/CycA2 (Homo sapiens, UniProt P24941); details: CDK2/CycA2, 1 µM; read-out: Residual Activity (%)
T16 construct: purchased ProQinase
Protocol: as §1, §2, §3, §4, §5, §6, §7, §8

EIF2AK2 = target: T17, EIF2AK2 (Homo sapiens, UniProt P19525); details: EIF2AK2, 1 µM; read-out: Residual Activity (%)
T17 construct: purchased ProQinase
Protocol: as §1, §2, §3, §4, §5, §6, §7, §8

ROCK2 = target: T18, ROCK2 (Homo sapiens, UniProt O75116); details: ROCK2, 1 µM; read-out: Residual Activity (%)
T18 construct: purchased ProQinase
Protocol: as §1, §2, §3, §4, §5, §6, §7, §8

NEK2 = target: T19, NEK2 (Homo sapiens, UniProt P51955); details: NEK2, 1 µM; read-out: Residual Activity (%)
T19 construct: purchased ProQinase
Protocol: as §1, §2, §3, §4, §5, §6, §7, §8

CDK9/CycT1 = target: T20, CDK9/CycT1 (Homo sapiens, UniProt P50750); details: CDK9/CycT1, 1 µM; read-out: Residual Activity (%)
T20 construct: purchased ProQinase
Protocol: as §1, §2, §3, §4, §5, §6, §7, §8

EPHB3 = target: T21, EPHB3 (Homo sapiens, UniProt P54753); details: EPHB3, 1 µM; read-out: Residual Activity (%)
T21 construct: purchased ProQinase
Protocol: as §1, §2, §3, §4, §5, §6, §7, §8

MARK4 = target: T22, MARK4 (Homo sapiens, UniProt Q96L34); details: MARK4, 1 µM; read-out: Residual Activity (%)
T22 construct: purchased ProQinase
Protocol: as §1, §2, §3, §4, §5, §6, §7, §8

CDK7/CycH/MAT1 = target: T23, CDK7/CycH/MAT1 (Homo sapiens, UniProt P50613); details: CDK7/CycH/MAT1, 1 µM; read-out: Residual Activity (%)
T23 construct: purchased ProQinase
Protocol: as §1, §2, §3, §4, §5, §6, §7, §8

YES = target: T24, YES (Homo sapiens, UniProt P07947); details: read-out: Residual Activity (%)
T24 construct: purchased ProQinase
Protocol: as §1, §2, §3, §4, §5, §6, §7, §8

MKK4 = target: T25, MKK4 (Homo sapiens, UniProt P45985); details: MKK4, 1 µM; read-out: Residual Activity (%)
T25 construct: purchased ProQinase
Protocol: as §1, §2, §3, §4, §5, §6, §7, §8

PASK = target: T26, PASK (Homo sapiens, UniProt Q96RG2); details: read-out: Residual Activity (%)
T26 construct: purchased ProQinase
Protocol: as §1, §2, §3, §4, §5, §6, §7, §8

ARK5 = target: T27, ARK5 (Homo sapiens, UniProt O60285); details: ARK5, 1 µM; read-out: Residual Activity (%)
T27 construct: purchased ProQinase
Protocol: as §1, §2, §3, §4, §5, §6, §7, §8

T1 sequence (Q9UQM7 whole entry): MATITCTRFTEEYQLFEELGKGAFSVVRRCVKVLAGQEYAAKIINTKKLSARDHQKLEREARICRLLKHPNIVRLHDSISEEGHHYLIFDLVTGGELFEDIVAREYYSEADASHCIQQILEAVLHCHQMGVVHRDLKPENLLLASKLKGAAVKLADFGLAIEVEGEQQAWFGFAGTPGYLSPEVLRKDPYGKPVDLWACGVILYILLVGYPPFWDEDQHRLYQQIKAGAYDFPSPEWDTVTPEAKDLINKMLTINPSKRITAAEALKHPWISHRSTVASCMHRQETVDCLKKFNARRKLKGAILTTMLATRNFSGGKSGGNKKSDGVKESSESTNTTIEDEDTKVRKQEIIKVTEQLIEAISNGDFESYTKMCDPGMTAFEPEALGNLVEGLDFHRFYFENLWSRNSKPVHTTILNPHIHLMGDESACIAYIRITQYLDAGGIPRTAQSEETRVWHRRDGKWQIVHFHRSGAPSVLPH
T22 sequence (Q96L34 whole entry): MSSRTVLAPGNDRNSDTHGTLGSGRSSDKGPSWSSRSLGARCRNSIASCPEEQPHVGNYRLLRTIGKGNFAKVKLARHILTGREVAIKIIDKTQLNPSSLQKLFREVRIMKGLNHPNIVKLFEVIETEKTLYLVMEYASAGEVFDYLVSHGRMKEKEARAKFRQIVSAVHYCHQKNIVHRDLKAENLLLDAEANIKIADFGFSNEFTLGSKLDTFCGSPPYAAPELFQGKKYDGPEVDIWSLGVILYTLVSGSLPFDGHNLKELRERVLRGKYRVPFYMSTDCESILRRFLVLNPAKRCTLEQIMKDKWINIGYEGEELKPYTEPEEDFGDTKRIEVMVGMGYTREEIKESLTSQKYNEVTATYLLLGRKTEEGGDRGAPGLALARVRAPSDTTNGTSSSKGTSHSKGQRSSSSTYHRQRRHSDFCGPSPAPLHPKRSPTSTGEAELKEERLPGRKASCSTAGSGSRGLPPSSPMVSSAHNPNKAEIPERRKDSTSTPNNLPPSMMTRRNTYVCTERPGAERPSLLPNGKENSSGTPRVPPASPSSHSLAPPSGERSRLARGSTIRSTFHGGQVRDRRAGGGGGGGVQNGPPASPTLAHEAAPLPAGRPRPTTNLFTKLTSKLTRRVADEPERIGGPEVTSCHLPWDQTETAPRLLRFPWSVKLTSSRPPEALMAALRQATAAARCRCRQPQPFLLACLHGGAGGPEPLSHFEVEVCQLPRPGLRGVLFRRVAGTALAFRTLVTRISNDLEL
T19 sequence (P51955 whole entry): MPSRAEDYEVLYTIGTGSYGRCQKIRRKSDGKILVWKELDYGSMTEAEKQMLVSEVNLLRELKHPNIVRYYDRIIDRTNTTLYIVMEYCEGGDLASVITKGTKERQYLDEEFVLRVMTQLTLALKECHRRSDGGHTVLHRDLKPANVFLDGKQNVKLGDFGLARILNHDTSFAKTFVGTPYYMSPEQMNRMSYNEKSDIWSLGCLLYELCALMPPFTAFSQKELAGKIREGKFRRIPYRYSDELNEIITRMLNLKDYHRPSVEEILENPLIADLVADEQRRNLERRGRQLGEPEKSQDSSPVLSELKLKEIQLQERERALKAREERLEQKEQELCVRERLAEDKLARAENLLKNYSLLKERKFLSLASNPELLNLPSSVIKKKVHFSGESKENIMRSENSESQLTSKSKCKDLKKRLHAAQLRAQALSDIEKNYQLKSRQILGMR
T21 sequence (P54753 34-998): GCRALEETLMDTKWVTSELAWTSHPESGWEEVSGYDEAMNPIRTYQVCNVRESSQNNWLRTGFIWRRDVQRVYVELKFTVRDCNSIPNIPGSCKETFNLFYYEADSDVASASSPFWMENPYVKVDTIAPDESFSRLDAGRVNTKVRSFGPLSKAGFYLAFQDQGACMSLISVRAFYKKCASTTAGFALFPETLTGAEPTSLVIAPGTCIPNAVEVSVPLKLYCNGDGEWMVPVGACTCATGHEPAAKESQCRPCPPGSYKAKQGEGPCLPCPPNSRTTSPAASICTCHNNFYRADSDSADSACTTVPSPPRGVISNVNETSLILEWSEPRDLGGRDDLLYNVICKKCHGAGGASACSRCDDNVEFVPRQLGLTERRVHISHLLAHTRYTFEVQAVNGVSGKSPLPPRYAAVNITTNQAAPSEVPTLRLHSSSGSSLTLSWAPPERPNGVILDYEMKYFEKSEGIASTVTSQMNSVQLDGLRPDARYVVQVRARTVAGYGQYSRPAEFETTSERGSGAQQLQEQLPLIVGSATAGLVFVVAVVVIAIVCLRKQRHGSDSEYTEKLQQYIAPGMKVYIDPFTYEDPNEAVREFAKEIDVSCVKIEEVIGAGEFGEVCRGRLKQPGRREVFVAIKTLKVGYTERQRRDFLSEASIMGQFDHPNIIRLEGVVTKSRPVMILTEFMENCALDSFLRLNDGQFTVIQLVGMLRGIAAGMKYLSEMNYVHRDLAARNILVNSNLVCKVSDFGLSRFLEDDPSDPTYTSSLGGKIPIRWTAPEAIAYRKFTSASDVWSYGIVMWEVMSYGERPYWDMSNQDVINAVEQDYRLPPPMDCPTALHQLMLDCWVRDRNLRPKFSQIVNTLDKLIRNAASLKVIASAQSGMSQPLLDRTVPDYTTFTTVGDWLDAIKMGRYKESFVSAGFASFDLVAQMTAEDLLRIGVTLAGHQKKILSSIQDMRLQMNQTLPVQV
T13 sequence (Q04771 21-509): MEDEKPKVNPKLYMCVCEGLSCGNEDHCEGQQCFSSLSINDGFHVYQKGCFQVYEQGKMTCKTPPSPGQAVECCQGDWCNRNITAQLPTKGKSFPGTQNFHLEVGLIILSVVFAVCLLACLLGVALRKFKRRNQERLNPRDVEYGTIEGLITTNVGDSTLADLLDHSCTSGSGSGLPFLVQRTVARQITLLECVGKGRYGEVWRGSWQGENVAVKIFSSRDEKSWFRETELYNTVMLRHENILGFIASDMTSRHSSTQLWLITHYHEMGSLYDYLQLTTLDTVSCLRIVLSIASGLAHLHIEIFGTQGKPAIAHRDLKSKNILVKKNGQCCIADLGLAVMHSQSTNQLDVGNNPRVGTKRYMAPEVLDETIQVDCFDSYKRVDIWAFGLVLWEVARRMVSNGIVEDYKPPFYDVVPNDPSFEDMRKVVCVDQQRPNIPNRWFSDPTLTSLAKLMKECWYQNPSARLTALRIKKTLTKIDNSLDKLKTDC
T12 sequence (Q16512 whole entry): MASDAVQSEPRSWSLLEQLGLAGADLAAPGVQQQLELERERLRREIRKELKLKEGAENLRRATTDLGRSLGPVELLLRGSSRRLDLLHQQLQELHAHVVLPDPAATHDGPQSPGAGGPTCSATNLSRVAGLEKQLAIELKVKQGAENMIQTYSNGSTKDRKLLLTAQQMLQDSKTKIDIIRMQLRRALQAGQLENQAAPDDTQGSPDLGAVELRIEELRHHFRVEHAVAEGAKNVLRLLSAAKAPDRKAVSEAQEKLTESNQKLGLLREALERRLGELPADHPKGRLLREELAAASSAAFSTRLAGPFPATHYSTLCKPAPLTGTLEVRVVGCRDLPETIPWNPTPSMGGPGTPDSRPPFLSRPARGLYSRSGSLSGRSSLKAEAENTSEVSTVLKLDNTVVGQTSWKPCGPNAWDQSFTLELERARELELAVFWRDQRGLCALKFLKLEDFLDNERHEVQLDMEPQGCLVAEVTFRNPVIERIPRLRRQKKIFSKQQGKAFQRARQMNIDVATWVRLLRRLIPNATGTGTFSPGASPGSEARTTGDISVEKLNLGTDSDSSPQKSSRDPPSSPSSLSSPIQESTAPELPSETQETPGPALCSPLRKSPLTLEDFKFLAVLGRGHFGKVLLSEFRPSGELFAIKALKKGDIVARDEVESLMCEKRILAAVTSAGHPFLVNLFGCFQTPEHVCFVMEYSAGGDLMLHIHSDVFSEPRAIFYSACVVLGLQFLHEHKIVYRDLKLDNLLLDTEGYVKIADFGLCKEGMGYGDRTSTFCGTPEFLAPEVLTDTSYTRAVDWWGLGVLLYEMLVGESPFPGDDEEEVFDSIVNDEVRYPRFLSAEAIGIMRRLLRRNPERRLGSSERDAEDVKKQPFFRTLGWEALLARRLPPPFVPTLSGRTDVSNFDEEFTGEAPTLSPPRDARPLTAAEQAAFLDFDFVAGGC
T6 sequence (Q9UPE1 whole entry): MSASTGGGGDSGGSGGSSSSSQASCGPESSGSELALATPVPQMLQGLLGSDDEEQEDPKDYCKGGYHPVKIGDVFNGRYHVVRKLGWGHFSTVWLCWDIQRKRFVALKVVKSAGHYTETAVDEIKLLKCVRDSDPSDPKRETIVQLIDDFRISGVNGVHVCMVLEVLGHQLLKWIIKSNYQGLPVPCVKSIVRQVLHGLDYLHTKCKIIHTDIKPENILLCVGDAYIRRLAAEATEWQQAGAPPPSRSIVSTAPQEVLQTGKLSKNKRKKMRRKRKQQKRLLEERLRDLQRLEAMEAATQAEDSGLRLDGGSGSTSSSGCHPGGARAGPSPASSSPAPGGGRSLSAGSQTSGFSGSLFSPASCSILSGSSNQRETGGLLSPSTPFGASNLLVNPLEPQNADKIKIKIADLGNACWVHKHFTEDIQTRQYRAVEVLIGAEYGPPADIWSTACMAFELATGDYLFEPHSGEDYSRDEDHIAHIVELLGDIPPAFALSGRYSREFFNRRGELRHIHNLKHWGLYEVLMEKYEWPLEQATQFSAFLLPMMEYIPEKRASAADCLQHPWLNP
T7 sequence (P19784 whole entry): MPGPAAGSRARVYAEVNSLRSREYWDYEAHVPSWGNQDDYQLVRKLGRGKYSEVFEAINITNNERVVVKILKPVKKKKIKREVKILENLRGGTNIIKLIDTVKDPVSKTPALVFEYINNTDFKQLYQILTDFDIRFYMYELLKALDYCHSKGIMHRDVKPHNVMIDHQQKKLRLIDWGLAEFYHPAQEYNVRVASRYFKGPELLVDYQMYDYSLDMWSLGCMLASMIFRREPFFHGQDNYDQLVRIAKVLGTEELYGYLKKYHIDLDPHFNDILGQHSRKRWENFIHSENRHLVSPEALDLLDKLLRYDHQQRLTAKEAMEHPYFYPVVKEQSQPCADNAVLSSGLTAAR

## COc1ccc(-c2cc(C(=O)Nc3cc(-c4c(-c5ccc(F)cc5)noc4C(C)C)ccn3)n(CC3NCC(O)C3O)c2)cc1 (stereo not drawn) [29d]
CAMK2A
  remaining activity at 1 µM: 87%
TAOK2
  remaining activity at 1 µM: 105%
MEKK3
  remaining activity at 1 µM: 104%
DNA-PK
  remaining activity at 1 µM: 95%
PRKG1
  remaining activity at 1 µM: 89%
STK23
  remaining activity at 1 µM: 96%
CK2-alpha2
  remaining activity at 1 µM: 111%
BLK
  remaining activity at 1 µM: 110%
MYLK
  remaining activity at 1 µM: 106%
PKC-nu
  remaining activity at 1 µM: 90%
CLK4
  remaining activity at 1 µM: 104%
PRK1
  remaining activity at 1 µM: 94%
ACV-R1
  remaining activity at 1 µM: 105%
PKC-beta1
  remaining activity at 1 µM: 116%
CDK9/CycK
  remaining activity at 1 µM: 97%
CDK2/CycA2
  remaining activity at 1 µM: 102%
EIF2AK2
  remaining activity at 1 µM: 132%
ROCK2
  remaining activity at 1 µM: 92%
NEK2
  remaining activity at 1 µM: 89%
CDK9/CycT1
  remaining activity at 1 µM: 103%
EPHB3
  remaining activity at 1 µM: 138%
MARK4
  remaining activity at 1 µM: 112%
CDK7/CycH/MAT1
  remaining activity at 1 µM: 98%
YES
  remaining activity at 1 µM: 126%
MKK4
  remaining activity at 1 µM: 109%
PASK
  remaining activity at 1 µM: 99%
ARK5
  remaining activity at 1 µM: 100%
